US20060282906A1, “Non-transgenic rodent model of Alzheimer's disease” (priority 2005, published 2006)
Marks after values point to notes of the source that are not given here. Where no end group is shown, it is not given here.

Legend:
Male Wistar rats [1] = assay: Congo Red histochemistry of rat brain sections; assay type: in vivo; conditions: Aβ: lesions in fornix, anterior hippocampus, CA1 hippocampus; endothelin: infarct
Protocol: Male Wistar rats (250 to 300 grams; Charles River, Montreal, Quebec) were divided into 4 groups: intracerebroventricular injections of Aβ(25-35) (BACHEM, Torrance, Calif.); endothelin injections into the right striatum; both Aβ(25-35) and striatal endothelin injections; and sham procedures. The Aβ(25-35) fragment was used to reduce the possibility of rapid coagulation and to allow diffusion of the peptide into the brain.
All rats were anesthetized using 40 mg/kg of pentobarbital (Somnotol; MTC Pharmaceuticals, Cambridge, Ontario) intraperitoneally. Body temperature was maintained at 37° C. Aβ(25-35) (50 nmol in 10 μL of saline) was injected bilaterally into the lateral ventricles. Aβ(25-35) was prepared according to established methods (Sigurdsson, et al. (1997) supra). Aβ(25-35) (50 nmol in 10 μL of saline at a rate of 1 μL/minute) was injected bilaterally into the lateral ventricles via a stainless-steel cannula (23-gauge; anterior/posterior −0.8, medial/lateral ±1.4, and dorsal/ventral −4.0 below dura). Two endothelin injections (6 pmol in 3 μL of saline), 1 mm apart, were made into the right striatum (Sigurdsson, et al. (1997) supra). Sham procedures involved all the surgical steps without injections of Aβ(25-35) or endothelin. After wound suture, all rats received […] of buprenorphine intramuscularly and were allowed to recover from surgery for 7 days. […]

Male Wistar rats [2] = assay: Quantitative immunohistochemistry: relative optical density and numbers of stained cells or accumulations; assay type: in vivo, rat; conditions: for APP Accumulation / GFAP Intensity / OX6 Intensity: vehicle (not in brackets), mean ± SEM, n = 4
Protocol: (§1) All rats were anesthetized using 40 mg/kg of pentobarbital (Somnotol; MTC Pharmaceuticals, Cambridge, Ontario) intraperitoneally. Body temperature was maintained at 37° C. Aβ(25-35) (50 nmol in 10 μL of saline) was injected bilaterally into the lateral ventricles. Aβ(25-35) was prepared according to established methods (Sigurdsson, et al. (1997) supra). Aβ(25-35) (50 nmol in 10 μL of saline at a rate of 1 μL/minute) was injected bilaterally into the lateral ventricles via a stainless-steel cannula (23-gauge; anterior/posterior −0.8, medial/lateral ±1.4, and dorsal/ventral −4.0 below dura). Two endothelin injections (6 pmol in 3 μL of saline), 1 mm apart, were made into the right striatum (Sigurdsson, et al. (1997) supra). Sham procedures involved all the surgical steps without injections of Aβ(25-35) or endothelin. After wound suture, all rats received 40 mg/kg of buprenorphine intramuscularly and were allowed to recover from surgery for 7 days.
(§2) Twenty-one days after surgery, all animals were euthanized via pentobarbital overdose and perfused transaortically first with saline followed by 4% formaldehyde (pH 7.4). The brains were removed and cryoprotected in 30% sucrose for 36 hours at 4° C. Coronal sections (30 pm) were cut using a cryostat.
(§3) Free-floating sections from rat brains (n=5 for each group) were treated with 0.03% hydrogen peroxide and blocked with 3 mL of horse or rabbit serum (VECTASTAIN® Elite, Vector Laboratories, Burlingame, Calif.). The following primary antibodies were diluted in filtered phosphate-buffered saline: APPa4 mouse monoclonal (Chemicon International Inc, Temecula, Calif.; 1:1000), GFAP mouse monoclonal (Sigma-Aldrich, St Louis, Mo.; 1:1000), OX-6 mouse monoclonal (Serotec, Inc., Raleigh, N.C.; 1:1000), Tau-2 mouse monoclonal (Sigma-Aldrich, St Louis, Mo.; 1:10000), NFκB(p65) goat polyclonal (Santa Cruz Biotechnologies, Santa Cruz, Calif.; 1:1000), IL-1β goat polyclonal (Santa Cruz Biotechnologies, Santa Cruz, Calif.; 1:1000), and TNF-α-M18 goat polyclonal (Santa Cruz Biotechnologies, Santa Cruz, Calif.; 1:1000). APP-, Tau-2-, GFAP-, and OX-6-stained sections were incubated with 3 mL of horse biotinylated anti-mouse secondary antibody and horse serum. NFκB(p65), IL-1β, and TNF-α-stained sections were incubated with 3 mL of biotinylated rabbit anti-goat secondary antibody and rabbit serum. Sections were then incubated in 3 mL of avidin-biotin complex followed by 0.05% diaminobenzidine. Sections were washed, air-dried, cleared in xylene, and cover-slipped. Brains to be compared were processed at the same time using the same solutions to reduce variability in immunostaining caused by separate processing.
(§4) Digital photographs were taken using a light microscope (Leitz Diaplan). An investigator was blinded to the identification of the rat sections while analysis was being performed. All immunohistochemical data that were compared was processed at the same time to reduce any variation caused by differences of intensity. A grading scale was based on both observable size and intensity of staining (n=5 for each group). Also, relative optical density measurements and numbers of stained cells or accumulations were measured in entire brain areas for quantitative analysis and statistically analyzed with ANOVA and Tukey post hoc test with a significance level of P<0.05.

rats = assay: Barnes circular platform test; assay type: in vivo, rat; conditions: 50 nmol intracerebroventricular; memory test trial (day 8) vs last trial of training (day −1); P<0.01
Protocol: All rats were anesthetized using 40 mg/kg of pentobarbital (Somnotol; MTC Pharmaceuticals, Cambridge, Ontario) intraperitoneally. Body temperature was maintained at 37° C. Aβ(25-35) (50 nmol in 10 μL of saline) was injected bilaterally into the lateral ventricles. Aβ(25-35) was prepared according to established methods (Sigurdsson, et al. (1997) supra). […] (1997) supra). […] After wound suture, all rats received […] of buprenorphine intramuscularly and were allowed to recover from surgery for 7 days. Learning and memory deficits were assessed using the Barnes circular platform. There are twenty holes evenly located along the border of circular platform with a hidden escape box beneath one of the holes. The circular platform is equipped with colored cues on the surrounding wall. A bright light combined with wind from a fan hung on the ceiling above the platform provides the incentive for the rats to find the hidden box and enter the escape hole. During each trial, the rats were initially placed in the center of the platform under an inverted box, then the box was lifted up and the rat is allowed to find the hole for up to 4 minutes. The latency (time to enter the escape hole) was recorded during the trial. There was a training period (trials 1-14) performed at day −7 to day −1 before surgery (day 0). PDTC or vehicle treatment was given 30 minutes before Aβ(25-35) injections and from days 1 to 7 post-surgery. Spatial memory was then tested on day 8 (trial 15) with the escape hole placed in the same location. Spatial learning was examined by re-testing (re-acquisition) from days 9 to 15 (trials 16-29) with the escape box relocated at […] from the original location. Digital photographs were taken using a light microscope (Leitz Diaplan). […] Also, relative optical density measurements and numbers of stained cells or accumulations were measured in entire brain areas for quantitative analysis and statistically analyzed with ANOVA and Tukey post hoc test with a significance level of P<0.05. […] The staircase data are expressed as the mean±SEM. […] Data are expressed as mean±SEM. […]

Male Wistar rats [3] = assay: Immunohistochemistry of rat brain sections, grading scale of staining size and intensity; assay type: in vivo; design: key to NKκB(p65) immunostaining signal / COX-2 immunostaining signal / GFAP immunostaining signal / OX-6 immunostaining signal / APP immunostaining signal / Tau-2 immunostaining signal / TNFα immunostaining signal / Cas-3 immunostaining signal: n.s.: no positive staining; +: moderate immunostaining signal; ++: strong immunostaining signal; +++: strongest immunostaining signal
Protocol: as §1, §2, §3, §4

Sequence: GSNKGAIIGLM [Aβ, β-amyloid fragment (25-35), 50 nmol injected bilaterally into the lateral ventricles of rats]
- Congo Red staining (Male Wistar rats [1]): stained amyloid positive with Congo Red
- average numbers of OX-6-stained microglia (Male Wistar rats [2]; CA1 of the hippocampus): 13.4±5.1
- Average intensity measurements for GFAP (Male Wistar rats [2]; Hippocampus): 162.9±8.7
- APP Accumulation (Male Wistar rats [2]; Left Cortex): 36.8 ± 7.8^y
- GFAP Intensity (Male Wistar rats [2]; Left Hippocampus): 167.5 ± 5.2
- OX6 Intensity (Male Wistar rats [2]; Left Hippocampus): 116.2 ± 6.7
- APP Accumulation (Male Wistar rats [2]; Right Cortex): 37.8 ± 5.4^y
- GFAP Intensity (Male Wistar rats [2]; Right Hippocampus): 166.5 ± 4.2
- OX6 Intensity (Male Wistar rats [2]; Right Hippocampus): 119.3 ± 9.1
- latency (time to enter the escape hole) (rats): increased latency
- APP immunostaining signal (Male Wistar rats [3]; Corpus Callosum): +
- COX-2 immunostaining signal (Male Wistar rats [3]; Corpus Callosum): +
- GFAP immunostaining signal (Male Wistar rats [3]; Corpus Callosum): +
- NKκB(p65) immunostaining signal (Male Wistar rats [3]; Corpus Callosum): +
- OX-6 immunostaining signal (Male Wistar rats [3]; Corpus Callosum): +
- TNFα immunostaining signal (Male Wistar rats [3]; Corpus Callosum): +
- Tau-2 immunostaining signal (Male Wistar rats [3]; Corpus Callosum): +
- APP immunostaining signal (Male Wistar rats [3]; Cortex): +
- COX-2 immunostaining signal (Male Wistar rats [3]; Cortex): +
- GFAP immunostaining signal (Male Wistar rats [3]; Cortex): +
- NKκB(p65) immunostaining signal (Male Wistar rats [3]; Cortex): +
- OX-6 immunostaining signal (Male Wistar rats [3]; Cortex): +
- TNFα immunostaining signal (Male Wistar rats [3]; Cortex): +
- Tau-2 immunostaining signal (Male Wistar rats [3]; Cortex): +
- APP immunostaining signal (Male Wistar rats [3]; Hippocampus): +
- COX-2 immunostaining signal (Male Wistar rats [3]; Hippocampus): +
- GFAP immunostaining signal (Male Wistar rats [3]; Hippocampus): +
- NKκB(p65) immunostaining signal (Male Wistar rats [3]; Hippocampus): +
- OX-6 immunostaining signal (Male Wistar rats [3]; Hippocampus): +
- Tau-2 immunostaining signal (Male Wistar rats [3]; Hippocampus): +
- APP immunostaining signal (Male Wistar rats [3]; Hypothalamus): +
- NKκB(p65) immunostaining signal (Male Wistar rats [3]; Hypothalamus): +
- TNFα immunostaining signal (Male Wistar rats [3]; Hypothalamus): +
- APP immunostaining signal (Male Wistar rats [3]; Striatum (right)): n.s.
- COX-2 immunostaining signal (Male Wistar rats [3]; Striatum (right)): n.s.
- Cas-3 immunostaining signal (Male Wistar rats [3]; Striatum (right)): n.s.
- GFAP immunostaining signal (Male Wistar rats [3]; Striatum (right)): +
- NKκB(p65) immunostaining signal (Male Wistar rats [3]; Striatum (right)): n.s.
- OX-6 immunostaining signal (Male Wistar rats [3]; Striatum (right)): n.s.
- TNFα immunostaining signal (Male Wistar rats [3]; Striatum (right)): n.s.
- OX-6 immunostaining signal (Male Wistar rats [3]; Thalamus (right)): +
- TNFα immunostaining signal (Male Wistar rats [3]; Thalamus (right)): +
